Results on one compound are retold here after patent US11999737B2, “Kinase inhibitors and related methods of use” (Duke University, priority 2014, dated 2024).

Test [1] deals with isolated PCA vessels (posterior cerebral artery of the rat). The test is described as follows: Dilation of isolated PCA vessels previously constricted with 5HT. From the text: FIG. 47 is a graph of HS-38 concentration versus percent dilation of isolated PCA vessels (posterior cerebral artery of the rat) previously constricted with 5HT.
ZIPK expression differences within different vascular beds may provide distinct pharmacology.

In a further test the target is Src (Homo sapiens, UniProt P12931). The test is described as follows: 33P-ATP filter-binding kinase assay (kinome profile). The class given is biochemical. As to conditions: 10 μM HS38.
In test [2] the test system is posterior cerebral arteries of spontaneous hypertensive rat (SHR). The experiment in a line: Pressure myography of posterior cerebral arteries of SHR, enhanced myogenic tone. The following applies: HS-38 10 μM, 10-wk SHR. The source says: Data are means (n=2 animals) for size-matched vessels from 10-wk SHR rats. The average maximum passive diameters at 120 mmHg were 280 μm. Representative pressure-induced changes in arteriolar diameter (A) as well as mean diameter-pressure relationships (B) and active myogenic constriction (C) are shown.
Posterior cerebral arteries (PCAs) from male Sprague-Dawley rats were isolated and mounted/cannulated for pressure myography. Briefly, 2-3 mm arterial segments are mounted across glass canuli in an arteriograph chamber attached to a pressure myograph (Living Systems, Burlington, Vt. USA) and tied in place using silk suture. Endothelial cells are removed by passing a stream of air bubbles through the vessel lumen (this methodology was confirmed by loss of dilatory response to acetylcholine). […] After this, arteriole myogenic responses (i.e., vessel diameter) to increasing luminal pressure were monitored ex vivo in the absence or presence of HS-38. […] This series of steps is repeated in normal Krebs buffer, with the addition of ZIPK inhibitor (i.e., 10 μM HS-38) and finally in Ca^2+ free Krebs (same constitution as normal Krebs with no CaCl2 and added EGTA (2 mM), Data are collected as average vessel diameter over stable region of each step and expressed as a percentage of the maximal passive vessel diameter (120 mmHg, 0Ca^2+) to standardize for variation in size of […]. […]

The subject of the next test is LC20 phosphorylation. Further details: species or system rat.
The target of a further test is ROK2 (Rattus norvegicus, UniProt Q62868). The experiment in a line: 33P-ATP filter-binding kinase assay.
For another test, the target named is T1, IRAK4 (Homo sapiens, UniProt Q9NWZ3).
T1 sequence (Q9NWZ3 1-460): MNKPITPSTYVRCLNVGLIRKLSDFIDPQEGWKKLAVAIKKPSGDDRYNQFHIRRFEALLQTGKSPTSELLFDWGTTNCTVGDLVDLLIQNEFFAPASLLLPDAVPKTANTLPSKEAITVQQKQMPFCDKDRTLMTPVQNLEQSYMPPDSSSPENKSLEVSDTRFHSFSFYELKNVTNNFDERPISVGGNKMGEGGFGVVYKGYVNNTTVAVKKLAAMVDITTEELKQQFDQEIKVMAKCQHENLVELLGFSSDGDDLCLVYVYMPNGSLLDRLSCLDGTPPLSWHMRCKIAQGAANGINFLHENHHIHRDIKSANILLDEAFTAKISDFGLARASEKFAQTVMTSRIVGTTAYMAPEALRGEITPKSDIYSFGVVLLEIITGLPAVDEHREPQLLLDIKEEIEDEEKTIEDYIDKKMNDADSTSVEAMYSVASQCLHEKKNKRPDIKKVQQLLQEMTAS
The experiment in a line: 33P-ATP filter-binding kinase assay.

Another test concerns LC20 monophosphorylation. Also on record: species or system rat.
A further test has as its system RLC20 phosphorylation. The experiment in a line: RLC20 phosphorylation in serum-starved aortic smooth muscle cells. It is filed as cell-based, mouse. The following applies: 30 min. As to the method:
A, Typical myograph force trace showing the effect of HS38 on intact mouse aorta contractility. The maximum contractile force of PE-induced contraction was reduced by approximately 30% when HS38 (10 μM) was added five minutes prior to PE addition and by approximately 40% when added ten minutes after PE addition. B, Serum-starved aortic SM cells were treated with SIP (0.25 μM) and HS-38 (±50 μM) for 30 min.
For Western blots, tissues and cultured cells were lysed in 1% SDS, NaCl (300 mM), Tris-HCl (50 mM, pH 7.5), subjected to SDS-PAGE, transferred to polyvinylidene difluoride membrane (Millipore) and visualized using the Odyssey System (Li-Cor). For Odyssey imaging, the membranes were blocked with Odyssey Blocking Buffer and then subjected to anti-MYPT1 (1:2,000) (BD Transduction), phospho-MYPT1 (Thr696) (1:1,000) (Millipore), RLC20 (1:2000) (Sigma) and phospho-RLC20 (1:1000) (Cell Signaling Technology) antibodies. Antibodies were diluted in appropriate blocking buffer. The membranes were washed in TBS with 0.05% Tween 20. Primary antibodies were visualized using secondary antibodies conjugated to Alexa 680 (Invitrogen) or IRDye800 (Li-Cor).
Cell Culture: Mouse aortic SM cells were prepared. The cell line was cultured in AmnioMax medium (Gibco) supplemented with 10% embryonic stem cell-qualified fetal bovine serum (Invitrogen) and penicillin-streptomycin (Invitrogen). […]

The mark [3] stands for this setting: read-out: % Activity (10 μM HS38).

ROK2, sequence (Q62868 2-543): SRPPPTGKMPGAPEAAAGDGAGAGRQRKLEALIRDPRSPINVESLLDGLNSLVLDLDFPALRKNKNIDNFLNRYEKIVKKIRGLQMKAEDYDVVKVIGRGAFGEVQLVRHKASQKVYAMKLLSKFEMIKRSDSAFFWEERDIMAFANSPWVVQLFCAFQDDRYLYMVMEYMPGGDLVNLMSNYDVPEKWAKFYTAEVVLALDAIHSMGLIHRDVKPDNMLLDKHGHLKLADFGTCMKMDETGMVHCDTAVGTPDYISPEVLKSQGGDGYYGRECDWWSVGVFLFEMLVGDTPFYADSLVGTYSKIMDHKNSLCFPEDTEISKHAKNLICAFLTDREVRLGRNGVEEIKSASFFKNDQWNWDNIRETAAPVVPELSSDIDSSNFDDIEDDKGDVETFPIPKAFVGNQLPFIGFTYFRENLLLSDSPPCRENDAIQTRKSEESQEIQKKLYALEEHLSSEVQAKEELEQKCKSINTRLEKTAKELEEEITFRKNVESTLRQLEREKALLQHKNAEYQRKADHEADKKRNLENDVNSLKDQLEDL
Src, sequence (P12931 whole entry): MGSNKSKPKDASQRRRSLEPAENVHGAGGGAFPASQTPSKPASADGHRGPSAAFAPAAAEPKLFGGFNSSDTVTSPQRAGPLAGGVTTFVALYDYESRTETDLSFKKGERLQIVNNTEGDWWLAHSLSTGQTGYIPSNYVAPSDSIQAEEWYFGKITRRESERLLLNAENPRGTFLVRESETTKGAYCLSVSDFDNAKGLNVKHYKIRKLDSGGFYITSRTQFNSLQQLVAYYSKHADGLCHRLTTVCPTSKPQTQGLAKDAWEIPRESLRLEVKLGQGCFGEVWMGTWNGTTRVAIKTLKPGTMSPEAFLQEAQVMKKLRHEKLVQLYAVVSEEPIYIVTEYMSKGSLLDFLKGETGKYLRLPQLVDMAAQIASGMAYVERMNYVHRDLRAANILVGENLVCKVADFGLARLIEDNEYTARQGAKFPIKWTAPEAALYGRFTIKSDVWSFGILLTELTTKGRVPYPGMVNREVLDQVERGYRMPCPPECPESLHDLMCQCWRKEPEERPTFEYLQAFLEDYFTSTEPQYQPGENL

For `CC(Sc1nc2c(cnn2-c2cccc(Cl)c2)c(=O)[nH]1)C(N)=O` (stereo not drawn) [HS38], in test [1], the “dilation of vessels previously constricted with 5HT” value is “induced dilation”. Also, on Src, the inhibition (in general, the percentage by which the read-out fell short of the control) at 10 µM worked out at 0%. For the same compound, the “enhanced myogenic tone at low basal luminal pressures” value in test [2] was “can be attenuated”. Moreover, in the test with LC20 phosphorylation, the “LC20 mono- and diphosphorylation” value is on record as “time-dependent attenuations”. At ROK2, the “activity against ROK2” value is “completely inactive”. The activity at 10 µM on ROK2 (setting [3]) worked out at 91%; on IRAK4 (setting [3]), 20%. For the same compound, the “fold less potent than against DAPK1 and PIM3” value at IRAK4 is given as about 10 fold. Further, the IC50 (commonly the concentration that gives 50% inhibition) at IRAK4 (mean ± S.D., n = 2) was 1.4 ± 0.4 µM. Besides, the “levels of LC20 monophosphorylation induced by KCl and Ang II” value in the test with LC20 monophosphorylation is “could attenuate”. Further, the “RLC20 phosphorylation, basal (unstimulated) state” value with RLC20 phosphorylation (50 μM, p <0.0002, n=8) is “significantly decreased”. For the same compound, the “RLC20 phosphorylation, S1P stimulated state” value with RLC20 phosphorylation (S1P 0.25 μM, HS38 50 μM, p <0.004, n=8) was “significantly decreased”.
